The record followed here is ChEMBL document CHEMBL4813969, “Design, synthesis and evaluation of 3-amide-5-aryl benzoic acid derivatives as novel P2Y14R antagonists with potential high efficiency against acute gouty arthritis” (Eur J Med Chem, 2021).

For data set [1], the target named is T1, P2Y purinoceptor 14 (Homo sapiens) (UniProt Q15391).
T1 sequence (whole entry): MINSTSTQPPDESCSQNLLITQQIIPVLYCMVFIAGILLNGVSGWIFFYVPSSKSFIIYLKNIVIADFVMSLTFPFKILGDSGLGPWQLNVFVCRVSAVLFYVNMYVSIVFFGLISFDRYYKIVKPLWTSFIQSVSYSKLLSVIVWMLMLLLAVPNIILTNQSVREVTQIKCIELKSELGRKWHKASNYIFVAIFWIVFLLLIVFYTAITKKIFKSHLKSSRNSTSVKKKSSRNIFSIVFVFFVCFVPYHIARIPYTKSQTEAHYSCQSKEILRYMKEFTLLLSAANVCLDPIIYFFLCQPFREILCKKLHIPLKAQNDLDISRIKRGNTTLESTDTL
Particulars: time 30.0 min.

A short description of data set [2]: Clearance in mouse at 10 mg/kg, po. The settings on record: in vivo. The format is ADME, organism-based.
Data set [3] in a line: Chemical stability of compound in DMSO. The format is physicochemical.
Data set [4] is described as follows: In vivo inhibition of MSU-induced pyroptosis in ICR mouse model of acute gout arthritis assessed as early apoptotic macrophage cells in foot tissue at 10 mg/kg, sc incubated for 24 hrs by caspase-1 and PI staining based flow cytometric analysis (reference value: 12.7 %). The format is functional. Background: In flow cytometry, cells or beads pass a laser one at a time.

A short description of data set [5]: Oral bioavailability in mouse at 10 mg/kg. The class given is ADME, organism-based. The settings on record: in vivo.
Data set [6] can be described thus: Cmax in mouse at 10 mg/kg, po. The class given is ADME, organism-based. Details: route oral, dose 10 mg/kg. Particulars: in vivo.
Data set [7] has as its system Mus musculus. The data set can be described thus: Antiarthritic activity against MSU-induced acute gout arthritis ICR mouse model assessed as reduction in paw swelling at 10 mg/kg, sc measured upto 24 hrs. The settings on record: time hrs <=24. The format is functional, organism-based.
Data set [8] can be described thus: In vivo inhibition of MSU-induced pyroptosis in ICR mouse model of acute gout arthritis assessed as viable macrophage cells in foot tissue at 10 mg/kg, sc incubated for 24 hrs by caspase-1 and PI staining based flow cytometric analysis (reference value: 34.3 %). The class given is functional.
The nature of data set [9]: Cmax in mouse at 5 mg/kg, iv. The format is ADME, organism-based. Particulars: in vivo. Set-up: route intravenous, dose 5 mg/kg.
Data set [10] relates to Mus musculus. The data set can be described thus: Downregulation of MSU-induced caspase-1 P20 expression in foot tissue of MSU-induced acute gout arthritis ICR mouse model at 10 mg/kg, sc measured upto 24 hrs by Western blot analysis. The class given is functional, organism-based. Particulars: time hrs <=24. For orientation: A western blot detects proteins with antibodies after separation by electrophoresis.

Data set [11] relates to Mus musculus. Kind of data set: Downregulation of MSU-induced NLRP3 expression in foot tissue of MSU-induced acute gout arthritis ICR mouse model at 10 mg/kg, sc measured upto 24 hrs by Western blot analysis. The class given is functional, organism-based. Particulars: time hrs <=24.
Data set [12] concerns Mus musculus. Kind of data set: Inhibition of MSU-induced IL-1beta level in foot tissue of MSU-induced acute gout arthritis ICR mouse model at 10 mg/kg, sc measured upto 24 hrs by Western blot analysis. The format is functional, organism-based. Particulars: time hrs <=24.
Data set [13] in a line: Metabolic stability in human liver microsomes assessed as half life at […] incubated for 45 mins by LC-MS/MS analysis. The class given is ADME, Microsome. A general note: Liver microsomes are vesicles of endoplasmic reticulum, rich in cytochrome P450 enzymes.
In data set [14] the test system is Mus musculus. The data set can be described thus: Inhibition of MSU-induced IL-8 level in foot tissue of MSU-induced acute gout arthritis ICR mouse model at 10 mg/kg, sc measured upto 24 hrs by Western blot analysis. The format is functional, organism-based. The settings on record: time hrs <=24.
Data set [15] can be described thus: In vivo inhibition of MSU-induced pyroptosis in ICR mouse model of acute gout arthritis assessed as late apoptotic macrophage cells in foot tissue at 10 mg/kg, sc incubated for 24 hrs by caspase-1 and PI staining based flow cytometric analysis (reference value: 21.6 %). The class given is functional.
Data set [16] is described as follows: In vivo inhibition of MSU-induced pyroptosis in ICR mouse model of acute gout arthritis assessed as necrotic macrophage cells in foot tissue at 10 mg/kg, sc incubated for 24 hrs by caspase-1 and PI staining based flow cytometric analysis (reference value: 31.4 %). The class given is functional.
Data set [17] is described as follows: AUC in mouse at 10 mg/kg, po. Particulars: in vivo. Set-up: dose 10 mg/kg. The format is ADME, organism-based.
Data set [18] is described as follows: Aqueous solubility of compound in PBS buffer at pH 7.4 incubated for overnight by UV-spectrometry. The format is physicochemical.
Data set [19] is described as follows: AUC in mouse at 5 mg/kg, iv. The class given is ADME, organism-based. Set-up: dose 5 mg/kg. The settings on record: in vivo.
The nature of data set [20]: Tmax in mouse at 5 mg/kg, iv. Particulars: in vivo. The format is ADME, organism-based.
The nature of data set [21]: Half life in mouse at 10 mg/kg, po. Particulars: in vivo. The format is ADME, organism-based.
Data set [22] deals with Mus musculus. The data set can be described thus: Inhibition of MSU-induced GSDMD-NT level in foot tissue of MSU-induced acute gout arthritis ICR mouse model at 10 mg/kg, sc measured upto 24 hrs by Western blot analysis. The class given is functional, organism-based. Particulars: time hrs <=24.
Another data set addresses T2, P2Y purinoceptor 14 (Homo sapiens, UniProt Q15391).
T2 sequence (Q15391 whole entry): T1 sequence (whole entry)
The data set can be described thus: Antagonist activity at P2Y14 (unknown origin) expressed in HEK293 cells assessed as reduction in cAMP production incubated for 30 mins by ADP-glo assay. The format is functional, cell-based.

For data set [23], the system named is Mus musculus. Kind of data set: Downregulation of MSU-induced ASC expression in foot tissue of MSU-induced acute gout arthritis ICR mouse model at 10 mg/kg, sc measured upto 24 hrs by Western blot analysis. The format is functional, organism-based. Particulars: time hrs <=24.
Data set [24] is described as follows: Half life in mouse at 5 mg/kg, iv. Particulars: in vivo. The class given is ADME, organism-based.
The subject of data set [25] is Mus musculus. The data set can be described thus: Antiarthritic activity against MSU-induced acute gout arthritis ICR mouse model assessed as reduction in infiltration of inflammatory cells at 10 mg/kg, sc measured upto 24 hrs. The class given is functional, organism-based. The settings on record: time hrs <=24.
A short description of data set [26]: Volume of distribution at steady state in mouse at 10 mg/kg, po. The settings on record: in vivo. The format is ADME, organism-based.
Data set [27] can be described thus: Volume of distribution at steady state in mouse at 5 mg/kg, iv. The class given is ADME, organism-based. Particulars: in vivo, read-out: Vdss.
The mark [28] stands for this setting: HEK293, filed as antagonist, dose 100.0 nM.

≈ marks a conversion by molar mass, not a printed value. Calls of active or inactive are those of the source. The rule behind the calls is not given here. A value given as a limit tells only on which side of the number the result lay.

Regarding `COc1ccc(-c2cc(NC(=O)c3ccc(C)cc3)cc(C(=O)O)c2)cc1`, the inhibition in data set [1] (setting [28]) stood at 79.1%.
On to `Cc1ccc(C(=O)Nc2cc(C(=O)O)cc(-c3ccoc3)c2)cc1`, for which, in [2], the CL/F came out at 6.03 mL/min/kg. The Stabilty entry in [3] is “Stable”. In addition, the inhibition in vivo at 10 mg/kg in data set [4] amounted to 13%; in data set [8] it was 43.2%; in data set [15], 10.9%; in data set [16], 33%. In [5], this molecule registered a bioavailability of 48.3%. The Cmax came out at 1800 ng/mL in data set [6] and 19300 ng/mL in data set [9]. In addition, the outcome in the data set on Mus musculus [7], with Mus musculus [10], in the data set with Mus musculus [11], in the data set on Mus musculus [23] and with Mus musculus [25] was Active. The inhibition entry in the data set on Mus musculus [12], in the data set with Mus musculus [14] and in the data set on Mus musculus [22] was “Active” in each case. For the same molecule, the half-life in data set [13] is over 1 h; in data set [21] it was 2.56 h; in data set [24], 2.32 h. The AUC in data set [17] is 7280 ng·h/mL; in data set [19], 843849 ng·min/mL. In data set [18], this molecule showed a solubility of 77.6 µg/mL (≈ 241 µM). The molecule further registered an inhibition in data set [1] (setting [28]) of 93.4%. Moreover, the Tmax in [20] is 5 min. Also, the IC50 on P2Y purinoceptor 14 is 2.18 nM. The Vdss in data set [26] was 0.21267 L/kg. In addition, in data set [27], the Vd was determined as 0.782 L/kg.
With `Cc1ccc(C(=O)Nc2cc(C(=O)O)cc(-c3cc[nH]n3)c2)cc1`, the Stabilty entry in [3] is “Unstable”. Besides, the inhibition in [1] (setting [28]) was determined as 86.8%. Also, the IC50 on P2Y purinoceptor 14 was determined as 2.63 nM.
Turning to `Cc1ccc(C(=O)Nc2cc(C(=O)O)cc(-c3ccco3)c2)cc1`, the inhibition in data set [1] (setting [28]) was 61.1%.
Regarding `Cc1ccc(C(=O)Nc2cc(C(=O)O)cc(-c3ccccc3)c2)cc1`, the solubility in data set [18] stood at 46.3 µg/mL (≈ 140 µM). In addition, in data set [1] (setting [28]), the inhibition is 87%. For the same molecule, the IC50 at P2Y purinoceptor 14 is 4.85 nM.
For `Cc1ccc(C(=O)Nc2cc(C(=O)O)cc(-c3ccsc3)c2)cc1`, the inhibition in data set [1] (setting [28]) was found to be 83%. On P2Y purinoceptor 14, the IC50 came to 9.74 nM.
In data set [1] (setting [28]), `Cc1ccc(C(=O)Nc2cc(C(=O)O)cc(-c3ccc(C)s3)c2)cc1` had an inhibition of 60.2%.
Still for that read-out and setting: to `COc1ncc(-c2cc(NC(=O)c3ccc(C)cc3)cc(C(=O)O)c2)cn1` belongs 72.5%; to `Cc1ccc(C(=O)Nc2cc(C(=O)O)cc(-c3cnc(N)nc3)c2)cc1`, 68.6%; to `Cc1ccc(C(=O)Nc2cc(C(=O)O)cc(-c3ccncc3)c2)cc1`, 72.1%.
For `Cc1ccc(C(=O)Nc2cc(C(=O)O)cc(-c3cncnc3)c2)cc1`, the inhibition in data set [1] (setting [28]) was 65.7%.
The molecule `Cc1ccc(C(=O)Nc2cc(C(=O)O)cc(-c3cccnc3)c2)cc1` yielded an inhibition in data set [1] (setting [28]) of 79.1%.
On the same count and under the same terms, to `Cc1ccc(C(=O)Nc2cc(C(=O)O)cc(-c3ccc[nH]3)c2)cc1` belongs 46%.
On to `Cc1ccc(C(=O)Nc2cc(C(=O)O)cc(-c3c(C)noc3C)c2)cc1`, for which, in [3], the Stabilty entry is listed as “Unstable”. In addition, in data set [1] (setting [28]), the inhibition was 82.3%. The IC50 on P2Y purinoceptor 14 is 2.95 nM.
In data set [1] (setting [28]), `CC(=O)c1ccc(-c2cc(NC(=O)c3ccc(C)cc3)cc(C(=O)O)c2)s1` showed an inhibition of 43.7%.
As to `O=C(O)c1cc(-c2ccc(C3CCNCC3)cc2)c2ccc(-c3ccc(C(F)(F)F)cc3)cc2c1` [PPTN], the inhibition in vivo at 10 mg/kg came to 17.3% in [4], 65.1% in data set [8], 6.41% in data set [15] and 11.1% in [16]. This molecule had a bioavailability in [5] of 7%. Besides, the outcome with Mus musculus [7], with Mus musculus [10], with Mus musculus [11], with Mus musculus [23] and in the data set with Mus musculus [25] was Active. The inhibition entry in the data set on Mus musculus [12], in the data set on Mus musculus [14] and in the data set with Mus musculus [22] was “Active” each time. This molecule displayed a solubility in [18] of under 5 µg/mL.
For the molecule `Cc1ccc(C(=O)Nc2cc(C(=O)O)cc(-c3ccc(C4CCNCC4)cc3)c2)cc1`, the bioavailability in [5] is 6%. In data set [1] (setting [28]), this molecule showed an inhibition of 85.3%.
In turn, `Cc1ccc(C(=O)Nc2cc(C(=O)O)cc(-c3cccs3)c2)cc1` had an inhibition in data set [1] (setting [28]) of 68.8%.
As for `Cc1ccc(C(=O)Nc2cc(C(=O)O)cc(-c3ccc(C)o3)c2)cc1`, the inhibition in [1] (HEK293, dose 100.0 nM) worked out at 16.1%.

As a reminder, the inhibition is the share of the control response that was lost under treatment. The CL/F is clearance divided by bioavailability, as obtained after extravascular dosing. A word on the inhibition in vivo: it is how much of the control response was suppressed. By bioavailability is commonly meant the share of a dose that reaches the circulation, judged against a reference dose that is usually intravenous. A high value points to good availability. By Cmax is commonly meant the maximum level reached in the sampled fluid or tissue. One may read the half-life as the time in which the quantity being followed falls by half. As usually defined, the AUC is concentration integrated over time. A low value points to less exposure. The solubility is the concentration that dissolves in the medium under given conditions. Higher therefore signals a readily soluble substance. As usually defined, the Tmax is the time at which the peak concentration occurs. A word on the IC50: it is the point on the concentration scale where inhibition reaches its midpoint.
